Patent US20090130064A1, “DIFFERENTIATION OF STEM CELLS AND STABILIZATION OF PHENOTYPICAL PROPERTIES OF PRIMARY CELLS” (priority 2004, published 2009)

Experiments:
primary rat hepatocytes [1] = experiment: Albumin secretion (ELISA) by primary rat hepatocyte cultures; assay type: cell-based
Procedure: Medium samples were collected at 72 hours of culture and analyzed for their albumin content by an enzyme-linked immunosorbent assay (ELISA) as described (Dunn et al. Biotechnol Prog 7: 237-245, 1991) Cell morphology was analyzed by light microscopy (×100). Pictures were taken using an Optiphot Nikon Phase Contrast microscope (Cetec, Brussels, Belgium).
Medium samples were collected at 72 hours of culture and analyzed for their albumin content by an enzyme-linked immunosorbent assay (ELISA) as described (Dunn et al. Biotechnol Prog 7: 237-245, 1991).

primary rat hepatocytes [2] = experiment: De novo protein synthesis by [3H]-leucine incorporation; assay type: cell-based; details: co-treatment with EGF
Procedure: De novo protein synthesis was determined by [^3H]-leucine incorporation. [^3H]-Leucine (2 μCi/ml final concentration) was added to the hepatocyte cultures 68 hours after plating. Four hours later, cells were washed twice with ice-cold PBS and lyzed in 40% cold trichloroacetic acid. After 2 additional washes in 10% cold trichloroacetic acid, the pellet was solubilized in NaOH (0.1N). The amount of [^3H]-leucine was subsequently measured by liquid scintillation.

p21 = experiment: Western blotting of p21 in primary rat hepatocytes; assay type: cell-based
Excerpt: Male outbred Sprague-Dawley rats (200-300 g, Iffa Credo, Brussels, Belgium) were kept under controlled environmental conditions (12-hr light-dark cycle) and fed a standard diet (Animafabo A04, water ad libitum). Hepatocytes were isolated by a two-step collagenase perfusion as described (De Smet et al. In ‘Methods in Molecular Biology, Vol. 107: Cytochrome P450 Protocols’, Philips I R and Shephard E A, eds., pp 295-301, Humana Press, Totowa, 1998). Cell liability was >90% as determined by trypan blue exclusion. Cells (0.4×10^5 cells/cm^2) were plated in MEM/M199 (3:1), containing BSA (1 mg/ml), bovine insulin (10 μg/ml), L-glutamine (2 mM), FBS (10% v/v) and antibiotics (7.3 IU/ml benzyl penicillin, 50 μg/ml streptomycin sulphate, 50 μg/ml kanamycin monosulphstep and 10 μg/ml sodium ampicillin). Four hours after plating, serum-containing medium was removed and fresh serum-free medium was added to the cultures. Culture medium was refreshed daily. […]
Total cell extracts were prepared as described previously (Papeleu et al. J Hepatol 39: 374-382, 2003) and proteins (25 or 50 μg per lane) were separated electrophoretically by SDS-PAGE and electroblotted onto nitrocellulose membranes (Amersham Pharmacia Biotech, Buckinghamshire, UK). […] Proteins were detected using the ECL detection system (Amersham Pharmacia Biotech, Buckinghamshire, UK) according to the manufacturer's recommendations.

histone H4 = experiment: Histone H4 acetylation (in vitro HDAC inhibiting activity) in primary rat hepatocytes, Western blot; assay type: cell-based; details: 48 hours
Excerpt: Male outbred Sprague-Dawley rats (200-300 g, Iffa Credo, Brussels, Belgium) were kept under controlled environmental conditions (12-hr light-dark cycle) and fed a standard diet (Animafabo A04, water ad libitum). Hepatocytes were isolated by a two-step collagenase perfusion as described (De Smet et al. In ‘Methods in Molecular Biology, Vol. 107: Cytochrome P450 Protocols’, Philips I R and Shephard E A, eds., pp 295-301, Humana Press, Totowa, 1998). Cell liability was >90% as determined by trypan blue exclusion. Cells (0.4×10^5 cells/cm^2) were plated in MEM/M199 (3:1), containing BSA (1 mg/ml), bovine insulin (10 μg/ml), L-glutamine (2 mM), FBS (10% v/v) and antibiotics (7.3 IU/ml benzyl penicillin, 50 μg/ml streptomycin sulphate, 50 μg/ml kanamycin monosulphstep and 10 μg/ml sodium ampicillin). Four hours after plating, serum-containing medium was removed and fresh serum-free medium was added to the cultures. Culture medium was refreshed daily. EGF (50 ng/ml) was added 4 hours after plating. A 100 mM stock solution of 4-Me2N-BAVAH was prepared in ethanol.
Hepatocytes were treated for 48 hours with 4-Me2N-BAVAH (10, 25 or 50 μM) Histones were acid-extracted as described previously (Coussens et al. J Biol Chem 254:1716-1723, 1979). Extracted histones (20 μg per lane) were electrophoresed on a 15% SDS-PAGE as described (Waterborg J et al. Anal Biochem 162: 430-434, 1987) and blotted. Equal sample loading was confirmed with Ponceau S. Membranes were incubated at room temperature with primary antibody for 1 hour under gentle shaking and visualized by ECL. Band intensities were quantified by laser densitometry.

rat hepatocytes = experiment: LDH index (membrane damage) in rat hepatocyte suspensions; assay type: cell-based; details: concentrations up to 100 μM; 6 h
[3] = test system: freshly isolated rat hepatocytes; experiment: Biotransformation in suspensions of freshly isolated rat hepatocytes; assay type: in vitro ADME
Procedure: Male outbred Sprague Dawley rats (Iffa Credo, Brussels, Belgium) weighing 200-300 g were used. The animals were kept under controlled environmental conditions (12 h light-dark cycle) and had free access to food (Animalabo A 04) and water. After intraperitoneal injection of Nembutal® (0.1 ml/kg body weight), hepatocytes were isolated as described by De Smet et al.. Cell integrity was evaluated by trypan blue exclusion, and was 88±3% (n=20). 5, 25 and 50 μM of both compounds were incubated with 2×10^6 hepatocytes/ml (final volume 3 ml) in HEPES buffer (pH 7.65, 37° C.) up to 6 h. Control samples were obtained by boiling the hepatocyte suspension for 2 min prior to the addition of substrate; cell-free controls contained the substrate in the incubation buffer without hepatocytes. At selected time intervals, 1.0 ml aliquots were submersed in liquid nitrogen to stop the biotransformation reaction.
After centrifugation (2000 g, 45 min, 4° C.) of the diluted microsomal samples, the clear supernatant was injected onto a HPLC column. Samples from incubations with hepatocytes were thawed on ice and centrifugated (120 g, 2 min). The supernatants (extracellular) were subjected to solid phase extraction (Waters Oasis™ HLB cartridges, Waters Corporation, Milford, Mass., USA), while cell pellets (intracellular) were ultrasonicated in 1 ml methanol and centrifugated (2000 g, 30 min, 4° C.). Separations ([…]) were performed by reversed-phase HPLC (Kontron chromatographic system, Milan, Italy) on a Discovery C18, 5 μm, 250×4.6 mm column (Supelco, Sigma-Aldrich, Bornem, Belgium). The mobile phase consisted of component A (0.1% (v/v) aqueous trifluoroacetic acid) and component B (0.1% (v/v) trifluoroacetic acid in acetonitrile). A linear gradient from 3 to 80% (v/v) B was used over 30 min at a flow rate of 1.0 ml/min. […]

Compound: CN(C)c1ccc(C(=O)NCCCCC(=O)NO)cc1 [4-Me2N-BAVAH, 5-(4-dimethylaminobenzoyl)-aminovaleric acid hydroxamide]
- secretion of albumin into the culture medium compared with 1 μM TSA (primary rat hepatocytes [1]; 50 μM 4-Me2N-BAVAH from day 0): significantly higher secretion of albumin
- increase in albumin secretion (primary rat hepatocytes [1]; 50 μM, 72 hours, versus untreated EGF-stimulated hepatocytes): 2.44±0.29 fold
- de novo protein synthesis (primary rat hepatocytes [2]): not further enhanced
- p21 expression (p21; 50 μM 4-Me2N-BAVAH + EGF): completely inhibited
- histone H4 acetylation, fold induction (histone H4; 10 μM): 2.35±0.05 fold induction
- histone H4 acetylation, fold induction (histone H4; 25 μM): 3.56±0.23 fold induction
- histone H4 hyperacetylation, fold induction (histone H4; 50 μM): 6.91±0.63 fold induction
- cell viability (LDH leakage) of hepatocytes in suspension (rat hepatocytes): not toxic
- time to full degradation ([3]; 50 μM, 2×10^6 hepatocytes/ml): more than 3 h
- half-life in comparison to TSA ([3]; rat hepatocyte suspensions): longer half-life

Compound: CC(C=CC(=O)NO)=CC(C)C(=O)c1ccc(N(C)C)cc1 (centres unmarked) [TSA]
- secretion of albumin versus cells isolated in absence of TSA (primary rat hepatocytes [1]; 1 μM TSA in the collagenase perfusion solution): significantly higher secretion of albumin
- p21 accumulation (p21; 1 μM TSA during liver perfusion and culture, 72 hours): complete absence of p21 accumulation
- cell viability (LDH leakage) of hepatocytes in suspension (rat hepatocytes): did not affect cell viability
- time to complete metabolism / full degradation ([3]; 50 μM, 2×10^6 hepatocytes/ml): ≤ 40 min
